Assay results from patent US7659397B2, “Pyrithione complex compound, process for producing the same and use thereof” (priority 2003, dated 2010).
Where two headings read alike, the source gives them in different places.

Key:
[1] = for Solubility in seawater, Dissolved zinc-copper / Solubility in seawater, Molecular weight conversion: pH = 8.2
Experimental: Formulation of artificial seawater (g/L)
0.1 g of the sample was added in 500 mL of artificial seawater, which was then stirred at 20° C. and 30° C. for 4 hours and filtered, and the filtrate was subjected to atomic absorption analysis.

[2] = 2% by weight in purified water, well-lighted room, one week
From the text: (§1) The pyrithione complex compound represented by the formula (I) is used as an antidandruff agent to be formulated in hair-care products such as shampoos and hair rinses like conventional zinc pyrithione. […] Also, the zinc pyrithione/zinc oxide complex compound and zinc pyrithione were respectively added to purified water in an amount of 2% by weight and each suspension was allowed to stand in a well-lighted room to observe the degree of coloration of the suspension.

[3] = tested on: Malassezia furfur NBRC 0656; settings: YM agar medium with olive oil, 30° C., 6 days
Experimental: (§2) Preparation of a sample: the extract was dissolved in dimethylsulfoxide, to which an aqueous 0.1 W % Tween 80 was added to make a sample solution.
YM agar medium to which olive oil is added, 30° C., 6 days

[4] = tested on: Staphylococcus aureus NBRC 12732; settings: for Minimum growth inhibitive concentration of bacteria, Staphylococcus aureus: Soybean casein digest agar medium, 30° C., 5 days
Experimental: as §2
Soybean casein digest agar medium, 30° C., 5 days

[5] = Weathering of polyethylene resin molded article (color difference, yellow index); format: physicochemical; settings: for ΔE* / ΔYI: Sample after hung in the sun versus before; for degree of coloring: after hung in the sun, ranking
Experimental: Then, the resin materials were respectively applied to a sheet having a size of 200 mm×200 mm×1.1 mm by press molding in the condition of 140° C. and 200 kgf/cm^2. Two test pieces of 30 mm×110 mm were cut from each of the four sheets and hung in the sun from 8 a.m. to 5 p.m. for five fine weather days selected from among the term between Sep. 15 and […].

[6] = tested on: Escherichia coli NBRC 3972; settings: for Minimum growth inhibitive concentration of bacteria, Escherichia coli: NB agar medium with lactose, 30° C., 3 days
Experimental: as §2
NB agar medium to which lactose is added, 30° C., 3 days

[7] = tested on: Aspergillus niger ATCC 6275; assay: Antibacterial test (MIC), agar medium; settings: Potato dextrose agar medium, 30° C., 7 days
oculus membrane mucosa = settings: aqueous 2.0 W % suspension instilled in the eye
From the text: as §1

[8] = tested on: Escherichia coli IFO 3972; assay: Antibacterial test (MIC), shake culture; format: cell-based; settings: 24 hours
Experimental: (§3) Preparation of a sample: the white powder is added in a fixed concentration.
(§4) Culture condition: 28° C., 24 hours, shake culture

[9] = tested on: Bacillus subtilis IFO 3215; assay: Antibacterial test (MIC), shake culture; format: cell-based; settings: 24 hours
Experimental: as §3, §4

[10] = Stability in DMSO (coloring of filtrate); format: physicochemical
Experimental: 2 g of each of these four compounds was added in 10 g of DMSO, allowed to stand at ambient temperature in a laboratory and filtered, to examine coloring of the filtrate. Then, the filter residue was again added to 10 g of DMSO to carry out the same operation.

[11] = tested on: Pseudomonas aeruginosa IAM 1514; assay: Antibacterial test (MIC), alone and combined with isothiazolone preparation; format: cell-based; settings: Table 3, Example 16
Experimental: as §3, §4

[12] = Sample after hung in the sun, five days
[13] = Sample before hung in the sun, 0.15 parts in LDPE

Row | Compound | Solubility in seawater, Dissolved zinc-copper ([1]; 20° C.) | Solubility in seawater, Molecular weight conversion ([1]; 20° C.) [µg/mL] | Solubility in seawater, Molecular weight conversion ([1]; 30° C.) [µg/mL] | degree of coloration of the suspension [2] | Minimum growth inhibitive concentration of bacteria, Malassezia furfur [3] [mg/L] | Minimum growth inhibitive concentration of bacteria, Staphylococcus aureus [4] [mg/L] | ΔE* [5] | ΔYI [5] | L* [5, 12] | YI [5, 12] | a* [5, 12] | b* [5, 12] | L* [5, 13] | YI [5, 13] | a* [5, 13] | b* [5, 13] | degree of coloring [5] | Minimum growth inhibitive concentration of bacteria, Escherichia coli [6] [mg/L] | Minimum growth inhibitive concentration of bacteria, Aspergillus niger [7] [mg/L] | further results
1 | [O-2].[O-][n+]1ccccc1S.[O-][n+]1ccccc1S.[O-][n+]1ccccc1S.[O-][n+]1ccccc1S.[O-][n+]1ccccc1S.[O-][n+]1ccccc1S.[Zn+2].[Zn+2].[Zn+2].[Zn+2] [Example 3 Chloroform extract, zinc pyrithione-zinc oxide complex compound] | 0.82 (Zn) mg/L | 3.2 | 4.3 | slightly yellowed | 5 | 1.25 | 11.52 | 19.93 | 81.92 | 21.52 | −3.05 | 11.52 | 84.78 | 1.58 | −0.28 | 0.71 | smaller | 10 |  | antibacterial ability to Staphylococcus aureus ([4]; compared with zinc pyrithione): higher; antibacterial ability to Escherichia coli ([6]; compared with zinc pyrithione): higher
2 | [Cu+2].[Cu+2].[Cu+2].[O-][n+]1ccccc1[S-].[O-][n+]1ccccc1[S-].[O-][n+]1ccccc1[S-].[O-][n+]1ccccc1[S-].[O-][n+]1ccccc1[S-].[O-][n+]1ccccc1[S-].[O]=[Cu] [Example 9 Chloroform extract, copper pyrithione/copper (II) oxide complex compound] | 0.14 (Cu) mg/L | 0.6 | 0.6 |  |  |  |  |  |  |  |  |  |  |  |  |  |  |  | 5 | Solubility in seawater, Dissolved zinc-copper ([1]; 30° C.): 0.15 (Cu) mg/L; solubility in seawater ([1]; as stated in the description): about 0.6 ppm
3 | Zinc pyrithione |  | 6.1 | 7.4 | colored in yellow | 5 | 2.5 | 20.18 | 34.00 | 82.16 | 34.70 | −5.00 | 19.68 | 86.87 | 0.71 | −0.79 | 0.51 | the largest | 20 |  | primary irritation (criterion by the Draize method) (oculus membrane mucosa): slightly irritant; Minimum growth inhibitive concentration of bacteria, Escherichia coli ([8]; Table 1, Example 14, 28° C.): 5 mg/L; Minimum growth inhibitive concentration of bacteria, Escherichia coli ([8]; Table 2, Example 15, 28° C.): 2.5 mg/L; Minimum growth inhibitive concentration of bacteria, Bacillus subtilis ([9]; Table 1, Example 14, 28° C.): 2.5 mg/L; Minimum growth inhibitive concentration of bacteria, Bacillus subtilis ([9]; Table 2, Example 15, 28° C.): 1 mg/L; coloring of the first filtrate ([10]; 2 g in 10 g of DMSO, ambient temperature): brown appearance; coloring of the second filtrate ([10]; filter residue again added to 10 g of DMSO): brown appearance; Minimum growth inhibitive concentration of bacteria, Pseudomonas aeruginosa [11]: >1000 mg/L
4 | On1ccccc1=S.On1ccccc1=S.[Cu] [Copper pyrithione] |  | 0.1 | 0.2 |  |  |  |  |  |  |  |  |  |  |  |  |  |  |  | 20 | 
